Experimental findings from PMC11091879, “Inhibitors of the Thioesterase Activity of Mycobacterium tuberculosis Pks13 Discovered Using DNA-Encoded Chemical Library Screening” (ACS Infectious Diseases, 2024) are described below.

≈ marks a conversion by molar mass, not a printed value. Where two headings read alike, the source gives them in different places.

One assay has as its system WT H37Rv. In words: microbe, parasite or virus in culture. The format is cell-based, Mycobacterium tuberculosis. As to conditions: for MIC: Mycobacterium tuberculosis, H37RV.
For a further assay, the target named is Pks13-TE (Mycobacterium tuberculosis, UniProt I6X8D2). In words: biochemical. The format is binding.
Chain of Pks13-TE (I6X8D2 1451-1733 limits assumed): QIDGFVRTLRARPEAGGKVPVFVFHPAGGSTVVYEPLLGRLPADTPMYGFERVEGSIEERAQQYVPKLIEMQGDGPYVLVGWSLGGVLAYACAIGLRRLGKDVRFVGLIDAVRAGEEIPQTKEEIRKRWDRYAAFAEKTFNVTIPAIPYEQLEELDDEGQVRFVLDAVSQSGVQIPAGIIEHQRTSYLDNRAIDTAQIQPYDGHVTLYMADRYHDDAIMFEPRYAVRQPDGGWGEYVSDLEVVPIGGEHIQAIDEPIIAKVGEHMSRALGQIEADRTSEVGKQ
In assay [1] the test system is pks13-TetON +ATc (Pks13-hypermorph). Format: cell-based, Mycobacterium tuberculosis.
Assay [2] concerns pks13-TetON -ATc (hypomorph). The format is cell-based, Mycobacterium tuberculosis.

Consider `CCC(C)(C)c1ccc(S(=O)(=O)N[C@@H](Cc2ccccc2)[C@@H](O)Cc2nc(N(C)C)no2)cc1` [X20348], for which the MIC in the assay with WT H37Rv (read-out: WT H37Rv MIC (uM)) was more than 250 µM. Besides, at Pks13-TE (enzyme potency / IC50), the half-maximal inhibitory concentration (IC50) came out at 0.47 µM.
Consider `Cc1cc(C(=O)NCc2ccccc2)nc(N2CCC(C(=O)N3CCN(C(=O)c4cnc5c(C)cccc5c4)CC3)CC2)n1` [X20377], for which, in assay [1], the “Hypermorph MIC fold shift (+ATc/WT)” value came out at 2.6 fold. Also, the MIC with WT H37Rv (read-out: MIC (Mtb inhibition)) and with WT H37Rv (read-out: WT H37Rv MIC (uM)) was 0.21 µM (≈ 0.124 µg/mL) throughout. In assay [2], the “Hypomorph MIC fold shift (WT/-ATc)” value was found to be 3.5 fold. In addition, the half-maximal inhibitory concentration (IC50) against Pks13-TE (IC50 (uM)) is 0.85 µM.
`COc1ccc2[nH]c(C(=O)N3CCN(C(=O)C4CCN(c5nc(C)cc(C(=O)NCc6ccccc6)n5)CC4)CC3)cc2c1OC` [X20419]: the “Hypermorph MIC fold shift (+ATc/WT)” value in assay [1] is reported as 2.5 fold. Besides, the MIC with WT H37Rv (read-out: MIC (Mtb inhibition)) worked out at 0.04 µM (≈ 0.025 µg/mL); in the assay with WT H37Rv (read-out: WT H37Rv MIC (uM)) it was 0.044 µM (≈ 0.0275 µg/mL). Besides, in assay [2], the “Hypomorph MIC fold shift (WT/-ATc)” value is reported as 1.8 fold. For the same compound, the “fold improvement in enzyme inhibition” value at Pks13-TE was 30 fold. The same compound came in with an IC50 on Pks13-TE (IC50 (uM)) of 0.48 µM.
Regarding `Cc1cc(C(=O)NCc2ccccc2)nc(N2CCC(CN3CCN(C(=O)c4cnc5c(C)cccc5c4)CC3)CC2)n1` [X21352], the “Hypermorph MIC fold shift (+ATc/WT)” value in assay [1] amounted to 6.1 fold. Further, the MIC with WT H37Rv (read-out: WT H37Rv MIC (uM)) was 5.2 µM (≈ 3 µg/mL). Moreover, the “Hypomorph MIC fold shift (WT/-ATc)” value in assay [2] was determined as 1.7 fold. The half-maximal inhibitory concentration (IC50) against Pks13-TE (IC50 (uM)) came to 0.46 µM.
Consider `Cc1cc(C(=O)NCc2ccccc2)nc(N2CCC(C(=O)N3CCN(C(=O)c4ccc5nc(C)sc5c4)CC3)CC2)n1` [X21408], for which the “Hypermorph MIC fold shift (+ATc/WT)” value in assay [1] worked out at 5.4 fold. Besides, the “WT H37Rv MIC” value in the assay on WT H37Rv was determined as 0.10 µM. The “Hypomorph MIC fold shift (WT/-ATc)” value in assay [2] amounted to 1.5 fold. Also, the IC50 on Pks13-TE (read-out: IC50) turned out to be 0.46 µM.
For `COc1ccn2nc(C(=O)N3CCN(C(=O)C4CCN(c5nc(C)cc(C(=O)NCc6ccccc6)n5)CC4)CC3)cc2c1` [X21411], the “Hypermorph MIC fold shift (+ATc/WT)” value in assay [1] stood at 6.0 fold. In addition, the MIC in the assay on WT H37Rv (read-out: WT H37Rv MIC (uM)) is 0.21 µM (≈ 0.125 µg/mL). In addition, in assay [2], the “Hypomorph MIC fold shift (WT/-ATc)” value is given as 2.1 fold. For the same compound, it took 0.48 µM to reach half-maximal inhibition at Pks13-TE (IC50 (uM)) (IC50).
As for `Cc1cccc2cc(C(=O)N3CCN(C(=O)C4CCN(c5nccc(C(=O)NCc6ccccc6)n5)CC4)CC3)cnc12` [X21424], the “Hypermorph MIC fold shift (+ATc/WT)” value in assay [1] is 5.8 fold. Also, the MIC in the assay with WT H37Rv (read-out: WT H37Rv MIC (uM)) came out at 2.6 µM (≈ 1.5 µg/mL). Moreover, in assay [2], the “Hypomorph MIC fold shift (WT/-ATc)” value is listed as 3.0 fold. The compound further yielded an IC50 at Pks13-TE (IC50 (uM)) of 0.39 µM.
In the case of `CNC(=O)c1cc(C(C)C)nc(N2CCC(C(=O)N3CCN(C(=O)c4ccc(-n5nc(C)cc5C)nc4)CC3)CC2)n1` [X21426], in assay [1], the “Hypermorph MIC fold shift (+ATc/WT)” value was found to be 4.8 fold. Besides, the MIC with WT H37Rv (read-out: WT H37Rv MIC) is 13 µM (≈ 7.46 µg/mL). Moreover, in assay [2], the “Hypomorph MIC fold shift (WT/-ATc)” value stood at 1.5 fold. Besides, the IC50 on Pks13-TE (read-out: IC50) came out at 0.62 µM.
With `Cc1cc(C(=O)NCc2ccncc2)nc(N2CCC(C(=O)N3CCN(C(=O)c4cnc5c(C)cccc5c4)CC3)CC2)n1` [X21429], the “Hypermorph MIC fold shift (+ATc/WT)” value in assay [1] is recorded as 3.9 fold. The MIC with WT H37Rv (read-out: MIC (whole cell activity)) and in the assay with WT H37Rv (read-out: WT H37Rv MIC (uM)) was 0.24 µM (≈ 0.142 µg/mL) in each case. The “Hypomorph MIC fold shift (WT/-ATc)” value in assay [2] was 2.3 fold. Also, half-maximal inhibition against Pks13-TE (IC50 (uM)) (IC50) was put at 0.42 µM.
With `COc1ccc(Cl)cc1-c1ccc(-c2cn(CCc3ccc(C(=O)N(C)C)cc3)nn2)cn1` [X21434], the “Hypermorph MIC fold shift (+ATc/WT)” value in assay [1] worked out at 5.4 fold. Further, in the assay with WT H37Rv (read-out: WT H37Rv MIC (uM)), the MIC turned out to be 1.1 µM (≈ 0.508 µg/mL). Moreover, the “Hypomorph MIC fold shift (WT/-ATc)” value in assay [2] is recorded as 2.4 fold. The compound also displayed an IC50 against Pks13-TE (IC50 (uM)) of 0.46 µM.
As for `COc1ccc(OC)c(-c2ncc(-c3cn(CCc4ccc(C(=O)N(C)C)cc4)nn3)cn2)c1` [X21435], the MIC in the assay with WT H37Rv (read-out: WT H37Rv MIC (uM)) is more than 125 µM. This compound also yielded a 50% inhibitory concentration (IC50) at Pks13-TE (IC50 (uM)) of 0.58 µM.
Take `COc1ccc(Cl)c(-c2ccc(-c3cn(CCc4ccc(C(=O)N(C)C)cc4)nn3)cn2)c1` [X21464]: in assay [1], the “Hypermorph MIC fold shift (+ATc/WT)” value turned out to be 3.8 fold. Besides, in the assay with WT H37Rv (read-out: WT H37Rv MIC (uM)), the MIC worked out at 5.5 µM (≈ 2.54 µg/mL). In assay [2], the “Hypomorph MIC fold shift (WT/-ATc)” value was determined as 2.4 fold. This compound also gave an IC50 on Pks13-TE (IC50 (uM)) of 0.38 µM.
`COc1ccc(OC)c(-c2ccc(-c3nc(N(C)Cc4ccc(C(=O)N(C)C)cc4)no3)cn2)c1` [X21475]: on Pks13-TE (read-out: IC50), the concentration for half-maximal inhibition (IC50) was more than 20 µM.
For the compound `Cc1cccc(-c2ccc(-c3cn(CCc4ccc(C(=O)N(C)C)cc4)nn3)cn2)c1C` [X21478], the “Hypermorph MIC fold shift (+ATc/WT)” value in assay [1] is 17 fold. Further, the MIC with WT H37Rv (read-out: WT H37Rv MIC (uM)) is 12 µM (≈ 5.11 µg/mL). Moreover, the “Hypomorph MIC fold shift (WT/-ATc)” value in assay [2] was 1.9 fold. The compound also had a half-maximal inhibitory concentration (IC50) against Pks13-TE (IC50 (uM)) of 0.47 µM.
With `Cc1cccc2cc(-c3cn(CCc4ccc(C(=O)N(C)C)cc4)nn3)cnc12` [X21497], in the assay with WT H37Rv, the “WT H37Rv MIC” value was more than 125 µM. Moreover, the IC50 on Pks13-TE (read-out: IC50) is more than 10 µM.
`COc1ccc(OC)c(-c2ccc(-c3cn(CCc4ccncc4)nn3)cn2)c1` [X21498]: the “Hypermorph MIC fold shift (+ATc/WT)” value in assay [1] was 2.7 fold. For the same compound, the “WT H37Rv MIC” value with WT H37Rv stood at 0.26 µM. The “Hypomorph MIC fold shift (WT/-ATc)” value in assay [2] is listed as 1.5 fold. For the same compound, at Pks13-TE (read-out: IC50), the IC50 is 0.37 µM.
In the case of `COc1ccc(OC)c(-c2ncc(-c3cn(CCc4ccc(C(=O)N(C)C)cc4)nn3)cc2C)c1` [X21499], the MIC in the assay with WT H37Rv (read-out: WT H37Rv MIC (uM)) stood at 18 µM (≈ 8.49 µg/mL). Moreover, in assay [2], the “Hypomorph MIC fold shift (WT/-ATc)” value is given as 1.6 fold. The same compound gave an IC50 against Pks13-TE (IC50 (uM)) of 0.58 µM.
Consider `CN(C)C(=O)c1ccc(CCn2cc(-c3ccc(-c4ccccc4C(F)(F)F)nc3)nn2)cc1` [X21502], for which the MIC with WT H37Rv (read-out: WT H37Rv MIC) is more than 125 µM. At Pks13-TE (read-out: IC50), the concentration for half-maximal inhibition (IC50) amounted to 0.59 µM.
On to `COc1ccc(OC)c(-c2ccc(-c3cn(CCc4ccc(-c5nccn5C)cc4)nn3)cn2)c1` [X21542], for which the “Hypermorph MIC fold shift (+ATc/WT)” value in assay [1] came to 2.7 fold. In the assay with WT H37Rv (read-out: WT H37Rv MIC), the MIC turned out to be 0.17 µM (≈ 0.0793 µg/mL). The “Hypomorph MIC fold shift (WT/-ATc)” value in assay [2] is 1.9 fold. Further, on Pks13-TE (read-out: IC50), the IC50 turned out to be 0.5 µM.
As to `COc1ccc(OC)c(-c2ccc(-c3cn(CCc4ccc5c(cnn5C)c4)nn3)cn2)c1` [X21543], the “Hypermorph MIC fold shift (+ATc/WT)” value in assay [1] came out at 1.7 fold. The MIC in the assay with WT H37Rv (read-out: WT H37Rv MIC) was 0.35 µM (≈ 0.154 µg/mL). For the same compound, in assay [2], the “Hypomorph MIC fold shift (WT/-ATc)” value stood at 3.4 fold. Moreover, the IC50 at Pks13-TE (read-out: IC50) is 0.49 µM.

As usually defined, the IC50 is the concentration that inhibits the measured activity by half.
